In patent US11666577B2 (National Institute of Biological Sciences, Beijing, priority 2018, dated 2023) one finds EC50 data, which are given here for 40 molecules.

SMILES strings stand for the structures.

One assay deals with HT-29 cells. As to the kind of experiment: Necroptosis assay (TNF-α/Smac mimetic/z-VAD, TSZ-induced) in HT-29 cells. To be noted: Homo sapiens; Series 1 (Table 1) compounds 1-146; HT-29 cells, TNF-α/Smac mimetic/z-VAD, 24 hrs, cell viability by ATP level; read-out: Series 1 compound necroptosis activity. The format is cell-based, human. The method, then: Methods: HT-29 cells were cultured in McCoy's 5 A culture medium (Invitrogen). On day one, HT-29 cells were plated in 96-well assay plates at density of 2,500-3,500 cells per well. On day two, necrosis were induced by adding 20 ng/ml TNF-α (T), 100 nM Smac mimetic (S), and […] z-VAD (Z). At the same time, 10 mM compound from a chemical library of ˜200,000 compounds was delivered into each well. After 24 hrs treatment, cell viability was determined by measuring ATP level using the Cell Titer-Glo Luminescent Cell Viability Assay kit. A CellTiter-Glo Assay (Promega) was performed according to the manufacturer's instructions. Luminescence was recorded with a PerkinElmer EnSpire Multimode Plate Reader. Survived cells were normalized to those cells treated with DMSO. RIPA-56 was used as a positive control for screening necroptosis inhibitors. Data are represented as mean±standard deviation of duplicates.
In previous work, we performed a cell-based high-throughput screen to identify necroptosis inhibitors using a chemical library of ˜200,000 compounds and identified multiple compounds that protected human colorectal adenocarcinoma (HT-29) cells from TNF-α/Smac mimetic/Z-VAD-fmk (TSZ)-induced necroptosis.^[4]
The anti-necroptosis potency of compounds 7-12 and 14-18 was evaluated in the HT-29 cell line; the EC50 values are shown in Table B.
[a] Necroptosis was induced in HT-29 cells for 24 h; the EC50 values given here are the mean values of at least three independent analyses.
As for `Cn1c(=O)c2c(nc(S(=O)(=O)CC3CC3)n2C)n(Cc2cccc(Cl)c2)c1=O` [Compound 137, 3-(3-chlorobenzyl)-8-((cyclopropylmethyl)sulfonyl)-1,7-dimethyl-1H-purine-2,6(3H,7H)-dione], the EC50 is 1 to 100 µM. As to `CCn1c(S(=O)(=O)CC2CC2)nc2c1c(=O)n(C)c(=O)n2C` [Compound 82], the EC50 is 1 to 100 µM. On to `Cn1c(=O)c2c(nc(S(=O)(=O)CC3CC3)n2C)n(Cc2cccc(F)c2)c1=O` [Compound 134, 8-((cyclopropylmethyl)sulfonyl)-3-(3-fluorobenzyl)-1,7-dimethyl-1H-purine-2,6(3H,7H)-dione], for which the EC50 lay within 1 to 100 µM. As to `Cn1c(=O)c2c(nc(S(=O)(=O)CC3CC3)n2C)n(Cc2ccc(Cl)cc2)c1=O` [Compound 138, 3-(4-chlorobenzyl)-8-((cyclopropylmethyl)sulfonyl)-1,7-dimethyl-1H-purine-2,6(3H,7H)-dione], the EC50 is 1 to 100 µM. The same measure, in the same setting: the same measure for `CCS(=O)(=O)c1nc2c(c(=O)n(C)c(=O)n2C)n1C` [Compound 7, 8-(ethylsulfonyl)-1,3,7-trimethyl-1H-purine-2,6(3H,7H)-dione]: 1 to 100 µM; for `Cn1c(=O)c2c(nc(S(=O)(=O)CC3CC3)n2C)n(CC#Cc2cccc(Cl)c2)c1=O` [Compound 119, 3-(3-(3-chlorophenyl)prop-2-yn-1-yl)-8-((cyclopropylmethyl)sulfonyl)-1,7-dimethyl-3,7-dihydro-1H-purine-2,6-dione]: 1 to 10 µM; for `CNc1cc(C#CCn2c(=O)n(C)c(=O)c3c2nc(S(=O)(=O)Cc2cc(OC)ccc2OC)n3C)ccn1` [Compound 127, 8-((2,5-dimethoxybenzyl)sulfonyl)-1,7-dimethyl-3-(3-(2-(methylamino)pyridin-4-yl)prop-2-yn-1-yl)-3,7-dihydro-1H-purine-2,6-dione]: 1 to 10 µM.

Still in this assay, the particulars now being: Homo sapiens; Series 2 (Table 2) compounds; HT-29 necroptosis assay; read-out: Series 2 compound necroptosis activity.
As for `CCCCCNc1cccc(C#CCn2c(=O)n(C)c(=O)c3c2nc(S(C)(=O)=O)n3C)c1` [Compound 16], the EC50 is 0.1 to 10 µM. On the same count and under the same terms, in the case of `CCCNS(=O)(=O)c1nc2c(c(=O)n(C)c(=O)n2C)n1C` [Compound 58] it was 10 to 100 µM; in that of `Cn1c(=O)c2c(nc(S(=O)(=O)CC3CC3)n2C)n(CC#Cc2cc(NC(=O)C3CC3)cc(NC(=O)C3CC3)c2)c1=O` [Compound 30], 0.001 to 0.1 µM. On to `Cn1c(=O)c2c(nc(S(C)(=O)=O)n2C)n(CC#Cc2ccnc(N)n2)c1=O` [Compound 24], for which the EC50 was in the range of 0.001 to 0.1 µM. For `Cn1c(=O)c2c(nc(S(C)(=O)=O)n2C)n(CC#Cc2cccc(NCc3ccccc3)c2)c1=O` [Compound 13], the EC50 fell in the range of 0.001 to 0.1 µM. Regarding `Cn1c(=O)c2c(nc(S(=O)(=O)CC3CC3)n2C)n(CC#Cc2ccnc(NC(=O)C3CC3)c2)c1=O` [Compound 31], the EC50 is 0.001 to 0.1 µM. Take `Cn1c(=O)c2c(nc(S(C)(=O)=O)n2C)n(CC#Cc2cc(NCC3CC3)cc(NCC3CC3)c2)c1=O` [Compound 37]: the EC50 lay in the range of 0.001 to 0.1 µM. As to `Cn1c(=O)c2c(nc([S+](C)[O-])n2C)n(CC#Cc2cc(NC(=O)C3CC3)nc(C(F)(F)F)c2)c1=O` (stereo not shown) [Compound 48], the EC50 lay in the range of 0.1 to 10 µM. For `Cn1c(=O)c2c(nc(S(=O)(=O)CC3CC3)n2C)n(CC#Cc2cc(NC(=O)C3CC3)nc(C(F)(F)F)c2)c1=O` [Compound 45], the EC50 lay within 0.001 to 0.1 µM.

`Cn1c(=O)c2c(nc(S(=O)(=O)CC3CC3)n2C)n(CC#Cc2ccnc(NCC3CC3)c2)c1=O` [Compound 34]: the EC50 was in the range of 0.001 to 0.1 µM. As to `Cn1c(=O)c2c(nc(S(=O)(=O)CC3CC3)n2C)n(CC#Cc2cc(NC(=O)CN3CCOCC3)ccc2Cl)c1=O` [Compound 22], the EC50 was in the range of 0.001 to 0.1 µM. Turning to `Cn1c(=O)c2c(nc(S(C)(=O)=O)n2C)n(CC#Cc2cc(NC(=O)CN3CCOCC3)cc(NC(=O)CN3CCOCC3)c2)c1=O` [Compound 26], the EC50 lay in the range of 0.001 to 0.1 µM. On to `Cn1c(=O)c2c(nc(S(C)(=O)=O)n2C)n(CC#Cc2cc(NC(=O)C3CC3)cc(C(F)(F)F)c2)c1=O` [Compound 44], for which the EC50 was 0.001 to 0.1 µM.

The same assay, now with this note: Series 1 (Table 1) compounds 1-146; HT-29 cells, TNF-α/Smac mimetic/z-VAD, 24 hrs, cell viability by ATP level; read-out: Series 1 compound necroptosis activity.
Take `COc1cc(CS(=O)(=O)c2nc3c(c(=O)n(C)c(=O)n3C)n2C)c(OC)cc1Cl` [Compound 70, 8-(4-chloro-2,5-dimethoxybenzylsulfonyl)-1,3,7-trimethyl-1H-purine-2,6(3H,7H)-dione]: the EC50 fell in the range of 1 to 1000 µM.

Consider `Cc1c2c(=O)n(C)c(=O)n(C)c2nn1S(C)(=O)=O` [Compound 145, 3,5,7-trimethyl-2-(methylsulfonyl)-2H-pyrazolo[3,4-d]pyrimidine-4,6(5H,7H)-dione], for which the EC50 fell in the range of 1 to 1000 µM. Still for that read-out and setting: in the case of `CSc1nc2c(c(=O)n(C)c(=O)n2C)n1CC(N)=O` [Compound 85, 2-(1,3-dimethyl-8-(methylthio)-2,6-dioxo-2,3-dihydro-1H-purin-7(6H)-yl)acetamide] it was 1 to 1000 µM; in that of `CCNC(=O)C#CCn1c(=O)n(C)c(=O)c2c1nc(S(C)(=O)=O)n2C` [Compound 132, 4-(1,7-dimethyl-8-(methylsulfonyl)-2,6-dioxo-1H-purin-3(2H,6H,7H)-yl)-N-ethylbut-2-ynamide], 1 to 1000 µM. For `Cn1c(S(C)(=O)=O)nc2c1c(=O)[nH]c(=O)n2C` [Compound 88, 3,7-dimethyl-8-(methylsulfonyl)-1H-purine-2,6(3H,7H)-dione], the EC50 was 1 to 1000 µM. `Cn1c(=O)c2c(nc(S(=O)(=O)Cc3ccccc3C(N)=O)n2C)n(C)c1=O` [Compound 45, 2-((1,3,7-trimethyl-2,6-dioxo-2,3,6,7-tetrahydro-1H-purin-8-ylsulfonyl)methyl)benzamide]: the EC50 lay in the range of 1 to 1000 µM. As for `Cn1c(=O)c2c(nc(S(=O)(=O)c3ccccc3)n2C)n(C)c1=O` [Compound 20, 1,3,7-trimethyl-8-(phenylsulfonyl)-1H-purine-2,6(3H,7H)-dione], the EC50 was 1 to 1000 µM. Consider `Cn1c(=O)c2c(nc(S(=O)(=O)CC3CC3)n2C)n(Cc2cccnc2)c1=O` [Compound 143, 8-((cyclopropylmethyl)sulfonyl)-1,7-dimethyl-3-(pyridin-3-ylmethyl)-1H-purine-2,6(3H,7H)-dione], for which the EC50 lay in the range of 1 to 1000 µM.

Consider `Cn1c(=O)c2c(nc(S(=O)(=O)CC3CC3)n2C)n(Cc2ccncc2)c1=O` [Compound 144, 8-((cyclopropylmethyl)sulfonyl)-1,7-dimethyl-3-(pyridin-4-ylmethyl)-1H-purine-2,6(3H,7H)-dione], for which the EC50 is 1 to 1000 µM. `Cn1c(=O)c2c(nc(S(=O)(=O)Cc3ccc(F)cc3)n2C)n(C)c1=O` [Compound 28, 8-(4-fluorobenzylsulfonyl)-1,3,7-trimethyl-1H-purine-2,6(3H,7H)-dione]: the EC50 was in the range of 1 to 1000 µM.

For `CCn1c(SCC2CC2)nc2c1c(=O)n(C)c(=O)n2C` [Compound 81, 8-(cyclopropylmethylthio)-7-ethyl-1,3-dimethyl-1H-purine-2,6(3H,7H)-dione], the EC50 was in the range of 1 to 1000 µM. In the case of `Cn1c(=O)c2c(nc(S(=O)(=O)Cc3c(Cl)cccc3Cl)n2C)n(C)c1=O` [Compound 57, 8-(2,6-dichlorobenzylsulfonyl)-1,3,7-trimethyl-1H-purine-2,6(3H,7H)-dione], the EC50 was in the range of 1 to 1000 µM. `Cn1c(=O)c2c(nc(S(=O)(=O)Cc3cccc(C(N)=O)c3)n2C)n(C)c1=O` [Compound 46, 3-((1,3,7-trimethyl-2,6-dioxo-2,3,6,7-tetrahydro-1H-purin-8-ylsulfonyl)methyl)benzamide]: the EC50 was 1 to 1000 µM.

For `CCSc1nc2c(c(=O)n(C)c(=O)n2C)n1C` [Compound 5, 8-(ethylthio)-1,3,7-trimethyl-1H-purine-2,6(3H,7H)-dione], the EC50 is 1 to 1000 µM.

Still in this assay, the particulars now being: Series 1 (Table 1) compounds 147-176; activity extrapolated; read-out: Series 1 compound necroptosis activity (extrapolated).
Consider `Cn1c(=O)c2c(nc3n2CCS3(=O)=O)n(CC#Cc2cccc(O)c2)c1=O` [Compound 148], for which the EC50 was 1 to 1000 µM. Regarding `C=CC(=O)Nc1cccc(C#CCn2c(=O)n(C)c(=O)c3c2nc(S(=O)(=O)CC2CC2)n3C)c1` [Compound 160], the EC50 was 1 to 1000 µM. As to `Cn1c(=O)c2c(nc(S(C)(=O)=O)n2C)n(CC#Cc2ccc3c(c2)NCCC3)c1=O` [Compound 170], the EC50 is 1 to 1000 µM.

Staying with this assay, now noted: Series 1 (Table 1) compounds; HT-29 cells, TNF-α/Smac mimetic/z-VAD, 24 hrs, cell viability by ATP level; read-out: Series 1 compound necroptosis activity.
`Cn1c(=O)c2c(nc(S(C)(=O)=O)n2C)n(Cc2cccs2)c1=O` [Compound 131, 1,7-dimethyl-8-(methylsulfonyl)-3-(thiophen-2-ylmethyl)-1H-purine-2,6(3H,7H)-dione]: the EC50 lay within 0.001 to 1 µM. The same measure, in the same setting: in the case of `Cn1c(=O)c2c(nc(S(=O)(=O)CC3CC3)n2C)n(CC#Cc2cccc(NC(=O)OC(C)(C)C)c2)c1=O` [Compound 123, tert-butyl(3-(3-(8-((cyclopropylmethyl)sulfonyl)-1,7-dimethyl-2,6-dioxo-1,2,6,7-tetrahydro-3H-purin-3-yl)prop-1-yn-1-yl)phenyl)carbamate] it was 0.001 to 1 µM; in that of `Cn1c(=O)c2c(nc(S(=O)(=O)CC3CC3)n2C)n(CC#Cc2ccc(Br)cc2)c1=O` [Compound 122, 3-(3-(4-bromophenyl)prop-2-yn-1-yl)-8-((cyclopropylmethyl)sulfonyl)-1,7-dimethyl-3,7-dihydro-1H-purine-2,6-dione], 0.001 to 1 µM.
